# ChEMBL document CHEMBL4024731, “Cytotoxic steroidal saponins from Trillium kamtschaticum” (Bioorg Med Chem Lett, 2017)
# Tested on: HCT-116
# Assay: Cytotoxicity against human HCT116 cells after 48 hrs by MTT assay
# Type: functional, cell-based
# Conditions: HCT-116, 48 h
row,Structure (SMILES),IC50
1,CC(=O)OC[C@H]1[C@@H]2C3=C(C(=O)[C@@H]2O[C@@]12OC[C@H](C)[C@@H](O)[C@@H]2O)[C@@H]1CC=C2C[C@@H](O)C[C@@H](O[C@@H]4OC[C@H](O)[C@H](O)[C@H]4O[C@@H]4O[C@@H](C)[C@H](OC(C)=O)[C@@H](O[C@@H]5OC[C@](O)(CO)[C@H]5O)[C@H]4O)[C@]2(C)[C@H]1CC3,4.92 µM
2,C/C(C(=O)CC[C@@H](C)CO[C@@H]1O[C@H](CO)[C@@H](O)[C@H](O)[C@H]1O)=C1/C(=O)C[C@H]2[C@@H]3CC=C4C[C@@H](O[C@@H]5O[C@H](CO)[C@@H](O[C@@H]6O[C@@H](C)[C@H](O)[C@@H](O)[C@H]6O)[C@H](O)[C@H]5O)CC[C@]4(C)[C@H]3CC[C@]12C,17.3 µM
3,CC(=O)O[C@H]1[C@@H](C)CO[C@@]2(O[C@H]3C(=O)C4=C(CC[C@H]5[C@H]4CC=C4C[C@@H](O)C[C@@H](O[C@@H]6OC[C@H](O)[C@H](O[C@@H]7OC[C@@H](O)[C@H](O)[C@H]7O)[C@H]6O[C@@H]6O[C@@H](C)[C@H](O)[C@@H](O[C@@H]7OC[C@](O)(CO)[C@H]7O)[C@H]6O)[C@@]45C)[C@H]3[C@@H]2CO)[C@H]1O,5.84 µM
4,CC1=C2[C@](O)(C[C@H]3[C@@H]4CC=C5C[C@@H](O[C@@H]6O[C@H](CO)[C@@H](O[C@@H]7O[C@@H](C)[C@H](O)[C@@H](O)[C@H]7O)[C@H](O)[C@H]6O[C@@H]6O[C@@H](C)[C@H](O)[C@@H](O)[C@H]6O)CC[C@]5(C)[C@H]4CC[C@]23C)[C@@H](C[C@@H](C)CO[C@@H]2O[C@H](CO)[C@@H](O)[C@H](O)[C@H]2O)C1=O,> 40 µM
5,Cc1c(CCC(C)CO)ccc2c1[C@@]1(C)CC[C@H]3[C@@H](CC=C4C[C@@H](O[C@@H]5O[C@H](CO)[C@@H](O)[C@H](O)[C@H]5O[C@@H]5O[C@@H](C)[C@H](O)[C@@H](O)[C@H]5O)CC[C@@]43C)[C@@H]1C2 (stereo not given in full),> 40 µM
6,C[C@@H]1O[C@@H](O[C@H]2[C@H](O[C@H]3CC[C@@]4(C)C(=CC[C@@H]5[C@@H]4CC[C@]4(C)C(=O)OC[C@@H]54)C3)O[C@H](CO)[C@@H](O)[C@@H]2O)[C@H](O)[C@H](O)[C@H]1O,> 40 µM
7,COC(=O)/C(C)=C1\C(=O)C[C@H]2[C@@H]3CC=C4C[C@@H](O[C@@H]5O[C@H](CO)[C@@H](O)[C@H](O)[C@H]5O[C@@H]5O[C@@H](C)[C@H](O)[C@@H](O)[C@H]5O)CC[C@]4(C)[C@H]3CC[C@]12C,> 40 µM
8,CC(=O)OC[C@H]1[C@@H]2C3=C(C(=O)[C@@H]2O[C@@]12OC[C@H](C)[C@@H](O)[C@@H]2O)[C@@H]1CC=C2C[C@@H](O)C[C@@H](O[C@@H]4OC[C@H](O)[C@H](O[C@@H]5OC[C@@H](O)[C@H](O)[C@H]5O)[C@H]4O[C@@H]4O[C@@H](C)[C@H](O)[C@@H](O[C@@H]5OC[C@](O)(CO)[C@H]5O)[C@H]4O)[C@]2(C)[C@H]1CC3,22.5 µM
9,"C/C(C(=O)CC[C@@H](C)CO[C@@H]1O[C@H](CO)[C@@H](O)[C@H](O)[C@H]1O)=C1/C(=O)C[C@H]2C3CC=C4C[C@@H](O[C@@H]5O[C@H](CO)[C@@H](O)[C@H](O)[C@H]5O[C@@H]5O[C@@H](C)[C@H](O)[C@@H](O)[C@H]5O)CC[C@]4(C)[C@H]3CC[C@]12C (single isomer, unassigned)",12.7 µM
10,CC[C@@]1(O)C(=O)OCc2c1cc1n(c2=O)Cc2cc3ccccc3nc2-1 [CAMPTOTHECIN],0.0115 µM
